Patent publication US6833353B1, “Use of immunosuppressants for MMP mediated diseases” (Fujisawa Pharmaceutical Co., Ltd., priority 1998, dated 2004)
Marks after values point to notes of the source that are not given here.

What was measured:
Format in all cases: in vivo, Lewis rats
TNF-α = TNF-α level in granulomatous tissue extract (ELISA), implant model; conditions: day 14
Method: (§1) Bone and excess tissue overlying the cartilage was removed under sterile conditions, in an airflow hood. The septum was washed in 70% ethanol before the cartilage was cut to a weight of 40×2mg. The cartilages were wrapped tightly in sterile cotton squares and soaked in 0.1 ml of a 10 mg/ml homogenized suspension of heat-killed Mycobacterium tuberculosis H37RA (Difco) in saline. Eight cartilages were stored in −20° C., these were to measure the levels of collagen in non-implanted cartilages.
(§2) Eight weeks old female Lewis rats were anaesthetized using halothane. The stomach area was shaved and swabbed with ethanol. […]
(§3) The granulomatous tissues were homogenized in 1 ml of 50 mM Tris, pH 7.5 containing 5 mM CaCl2, 0.1% Triton X-100 and 0.02% NaN3) After centrifugation of the extract at 15000 rpm for 10 min to remove debris, the supernatant was assayed for collagenolytic activity, gelatinolytic activity, tumor necrosis factor-α (TNF-α) level and Interferon-γ (IFN-γ) level. Collagenolytic and gelatinolytic activities in the extracts were measured using commercial assay kits (YAGAI, Japan). Cytokines levels were also measured using ELISA kits (Cosmo Bio, Japan). The protein contents in the extracts was determined using the method of Lowry.
(§4) Data is expressed as mean±SEM. The significance of differences was determined by Dunnett's multiple comparison test (*p<0.05, **p<0.01).

gelatinase = assay: Gelatinolytic activity in granulomatous tissue extract, implant model; conditions: day 14
Method: as §1, §2, §3, §4

IFN-γ = IFN-γ level in granulomatous tissue extract (ELISA), implant model; conditions: day 14
Method: as §1, §2, §3, §4

collagenase = assay: Collagenolytic activity in granulomatous tissue extract, implant model; conditions: day 14
Method: as §1, §2, §3, §4

cartilage degradation = assay: Cartilage degradation in cotton-wrapped cartilage implant model (hydroxyproline content of implanted cartilage)

SMILES: C=CC[C@@H]1/C=C(\C)C[C@H](C)C[C@H](OC)[C@H]2O[C@@](O)(C(=O)C(=O)N3CCCC[C@H]3C(=O)O[C@H](/C(C)=C/[C@@H]3CC[C@@H](O)[C@H](OC)C3)[C@H](C)[C@@H](O)CC1=O)[C@H](C)C[C@@H]2OC [FK506, 17-allyl-1,14-dihydroxy-12-[2-(4-hydroxy-3-methoxycyclohexyl)-1-methylvinyl]-23,25-dimethoxy-13,19,21,27-tetramethyl-11,28-dioxa-4-azatricyclo[22.3.1.0^4,9] octacos-18-ene-2,3,10,16-tetraone]
- inhibition (%) TNF-α (TNF-α; 1.0 mg/kg po once daily): 43.9** %
- inhibition (%) TNF-α (TNF-α; 3.2 mg/kg po once daily): 56.6** %
- inhibition (%) gelatinase (gelatinase; 1.0 mg/kg po once daily): 67.9* %
- inhibition (%) gelatinase (gelatinase; 3.2 mg/kg po once daily): 82.1** %
- inhibition (%) IFN-γ (IFN-γ; 1.0 mg/kg po once daily): 58.1%
- inhibition (%) IFN-γ (IFN-γ; 3.2 mg/kg po once daily): 73.4* %
- inhibition (%) collagenase (collagenase; 1.0 mg/kg po once daily): 7.7%
- inhibition (%) collagenase (collagenase; 3.2 mg/kg po once daily): 29.8%
- Recovery (%) of Hydroxyproline (cartilage degradation; 3.2 mg/kg po once daily, 14 days, implanted bovine nasal cartilage, rat): 61.9** %
- inhibition of the decrease of hydroxyproline contents in cartilage (cartilage degradation; 3.2 mg/kg po, uid, rat implant model): 62%
